# According to patent US5605703A, “Liposomes encapsulating doxorubicin” (priority 1993, dated 1997):
# Entries after “also recorded” stand apart in the source; their conditions may differ.
# Key:
# [1] = Survival of healthy BALB/C rats after i.p. administration; conditions: rat, in vivo, ip, 18 mg/kg, during the second week
# Protocol: (§1) As in Example 1, VET liposomes of composition PL:PG:CHOL:DXR (50:50:50:15) and chroman 6 (7.5 mg) were prepared.
# Inoculation by intraperitoneal route. Healthy BALB/C rats were treated intraperitoneally with said preparation, and the survival curves compared (FIG. 4) with the administration of free drug at the same dose, 18 mg/kg. In the experiment there was incorporated as a control a preparation of liposomes without drug, of identical characteristics and at the same lipidic concentration which would correspond to the liposomes with DXR.
# [2] = Survival of healthy BALB/C rats after i.v. administration; conditions: rat, in vivo, iv, 16 mg/kg, during the second week
# Protocol: as §1
# Inoculation intravenously. Healthy BALB/C rats were treated intravenously with the preparation of L-DXR described and the survival curves compared (FIG. 5) with the administration of free drug of the same dose, 16 mg/kg. In the experiment there was incorporated as a control a preparation of liposomes without drug, of identical characteristics and at the same lipidic concentration which would correspond to the liposomes with DXR.
# animals = conditions: literature; cited from earlier work
# [3] = tested on: lipid peroxidation in rat liver microsomes (NADPH); test: Inhibition of NADPH-induced (enzymatic) lipid peroxidation in rat liver microsomes, TBARS test; type: biochemical, Sprague-Dawley male rat; conditions: for IC50 / inhibition of lipid peroxidation, NADPH (in words): rat liver microsomes; for IC50: 0.1 mM NADPH, one hour at 37° C., read-out: IC50 TBARS production, NADPH
# Protocol: (§2) Incubations. Suspension of Sprague-Dawley male rat liver microsomes in Krebs-Ringer (KRP) phosphates buffer, were prepared in accordance with the method of Fraga et al.: Free Radical Biol. Med. (1988) 4, 155-161. For the experiences of lipidic peroxidation induced enzymatically, microsomal protein (2 mg) in 1 ml of KRP buffer was incubated for one hour at 37° C. in the presence of 0.1 mM NADPH and 2 μl of DMSO containing the compound to be evaluated at the appropriate concentration. In the experiments where the incubations were prolonged up to three hours, every hour 0.1 ml of NADPH 2 mM was added to the incubation medium. For the experiments of lipid peroxidation induced chemically, 2 mg. of microsomal protein in 1 ml of KRP buffer were incubated for 30 min. at 37° C. in the presence of FeSO4 50/μM, ascorbic acid 0.5 mM and 2 μl of DMSO containing the compound to be evaluated at the appropriate concentration. In all cases, the incubations were arrested by addition of 0.2 ml of BHT at 4%.
# (§3) TBARS test. […]. (1988) 4, 155-161 (herein incorporated by reference). Briefly, 0.5 ml of dodecyl sodium sulphate at 3% was added to proportions of 0.5 ml of the microsomal incubations. After mixing them, 2 ml of HC1 0.1 N, 0.3 ml of phosphotungstic acid and 1 ml of 2-thiobarbituric acid were added. The mixture was kept 30 min. at 100° C., and the TBARS were extracted with 3 ml of 1-butanol. After centrifugation, the fluorescence of the butanol phase was determined exciting at 515 nm and reading at 555 nm. The values obtained were expressed as nanomoles of TBARS (malondialdehyde equivalents). The standards of malondialdehyde were prepared from 1,1,3,3-tetramethoxypropane. The experiments were performed in triplicate. The values of […] were determined by representation of the percentage of inhibition vs. log [I], using at least five different concentrations. The values of the percentages of inhibition were referred to the determination carried out in presence of DMSO (2 μl).
# (§4) In Table I the results of the inhibition of the lipidic peroxidation shown by several 2.2-dimethylchromans and chromans, fluorated or not, in incubations of rat liver microsomes induced by NADPH or stimulated by Fe-ascorbate, are shown, expressed as values of […] for the inhibition of the production of TBARS.
# [4] = tested on: lipid peroxidation in rat liver microsomes (Fe-ascorbate); test: Inhibition of Fe-ascorbate stimulated (chemical) lipid peroxidation in rat liver microsomes, TBARS test; type: biochemical, Sprague-Dawley male rat; conditions: for percentage of inhibition of TBARS production, Fe-ascorbate: at a 0.5 mM concentration; for inhibition of lipid peroxidation, Fe-ascorbate (in words) / IC50: rat liver microsomes; for effect with Fe-ascorbate compared with the tests depending on NADPH: Fe-ascorbate vs. NADPH; for IC50: FeSO4, ascorbic acid 0.5 mM, 30 min. at 37° C., read-out: IC50 TBARS production, Fe-ascorbate
# Protocol: as §2, §3, §4
# [5] = Encapsulation of DXR in liposomes (Sephadex G-50M); type: physicochemical; conditions: VET liposomes PL:PG:CHOL:DXR (50:50:50:15), anti-oxidant varied
# Protocol: A chloroform solution was prepared containing the selected lipids (table II) and 7.5 mg. of the chroman 6 in a round-bottomed flask. Afterward proceeding to the elimination of the organic solvent by means of roto-evaporation, additionally the traces of solvent were eliminated by passage of N2 or by lyophilization. The lipidic film thus obtained was hydrated, with 3 ml of NaCl solution at 0.9% containing DXR, by agitation in a vibromixer at intervals of 30 sec., followed by resting in a bath maintained at 60° C. for the same amount of time and an effective agitation up to 10 min. Thus a liposomal dispersion was obtained containing preferably multilamelar vesicles (MLVs). The liposomal solution was sonicated by ultrasonic irradiation by means of a titanium probe until a change in the turbidity was observed. The protocol of sonication was carried out in relays of 2 min. of sonication and one minute resting under atmosphere of N2 in an ice water bath. In order to eliminate the particles of titanium produced during the sonication, it was centrifuged for 20 min. at 3000 rpm. The liposomal suspension thus obtained contained small unilamelar liposomes (SUVs).
# Alternatively, the suspension of multilamelar liposomes obtained as described was submitted to extrusion through polycarbonate filters of 0.4 and 0.2 μm in diameter of pore subsequently, obtaining liposomes designated VET.
# The determination of the percentage of encapsulation of DXR was done by chromatographic separation of a portion of the liposomal suspension, by means of Sephadex G-50M utilizing NaCl 0.9% as eluent.
# Proceeding in a manner analogous to that described in EXAMPLE 2 to obtain VET liposomes utilizing a ratio by weight of PL:PG:CHOL:DXR of 50:50:50:15 and varying the anti-oxidant agent employed. The results obtained show (Table III) that no appreciable differences exist in the percentages of encapsulation when different inhibitors of the lipidic peroxidation were utilized.
# rat liver microsomes = type: in vitro ADME, Sprague-Dawley male rat
# [6] = tested on: lipid peroxidation in rat liver microsomes (NADPH); test: Persistence of the inhibition of lipid peroxidation over three hours in rat liver microsomes with NADPH; type: biochemical, Sprague-Dawley male rat; conditions: compounds 5, 6, 8, 9 at 15, 1, 6, 5 μM
# Protocol: FIG. 1 illustrates the formulas of the chromenes (1-4), chromans (5-9) and compound of reference, BHT, (10) studied as inhibitors of the lipidic peroxidation. […] The values shown are the average +/-SD of sextuplicate tieterminations that were performed. The difference between consecutive hours are marked by asterisks: * P<0.001, ** P<0.005.
# as §2
# TBARS test. When the incubations were completed, the lipid peroxidation was evaluated by means of the production of substances which react with thiobarbituric acid (TBARS) as Fraga et al described.: Free Radical Biol. Meal. (1988) 4, 155-161 (herein incorporated by reference). Briefly, 0.5 ml of dodecyl sodium sulphate at 3% was added to proportions of 0.5 ml of the microsomal incubations. […] After centrifugation, the fluorescence of the butanol phase was determined exciting at 515 nm and reading at 555 nm. The values obtained were expressed as nanomoles of TBARS (malondialdehyde equivalents). […] The values of […] were determined by representation of the percentage of inhibition vs. log [I], using at least five different concentrations. […]
IC50 [3],% encapsulation (Table III) [5],IC50 [4],Structure (SMILES),mortality [1],mortality [2],toxicity in animals (in words) (animals),"percentage of inhibition of TBARS production, Fe-ascorbate [4]","inhibition of lipid peroxidation, Fe-ascorbate (in words) [4]",effect with Fe-ascorbate compared with the tests depending on NADPH [4],"inhibition of lipid peroxidation, NADPH (in words) [3]",metabolite detected (rat liver microsomes),persistence of the inhibiting activity [6],"inhibiting activity compared with another compound, NADPH [3]","inhibiting activity compared with another compound, Fe-ascorbate [4]"
11.4 µM,89%,,COc1cc2c(cc1OC)OC(C)(C)C=C2 [compound 1],,,,35%,inactive,,,,,,
3.7 µM,84%,6 µM,CC1(C)C=Cc2cc(O)c(OCC(F)(F)F)cc2O1 [compound 4],,,,,,,the greatest inhibiting activity,detection as a metabolite in the incubations with NADPH,,,
6 µM,90%,,COc1cc2c(cc1OCC(F)(F)F)OC(C)(C)CC2 [compound 8],,,,5%,does not present inhibiting activity per se,,,,slightly higher during the second hour of incubation; also recorded: significant drop in the inhibiting activity during the third hour; also recorded: not significant when it is compared with the percentage of inhibition determined for the first hour of incubation (P>0.005); also recorded: anti-oxidant efficiency more metabolic-dependent,nine times greater than that corresponding to chromene 3,
3.9 µM,83%,5.3 µM,CC1(C)CCc2cc(O)c(OCC(F)(F)F)cc2O1 [compound 9],,,,,,,the highest inhibiting activity of the chroman fluorates tested,,decreases during the second and the third hour of incubation; also recorded: less pronounced than that obtained for the compound 6; also recorded: more persistent intrinsic activity,,slightly inferior to that shown by hydroxychroman 6
0.8 µM,,2.7 µM,"Cc1cc(C(C)(C)C)c(O)c(C(C)(C)C)c1 [compound 10, reference compound]",,,,,,A similar relation,,,,,

# The next lines start with the compound.
Structure (SMILES),IC50 [3],% encapsulation (Table III) [5],IC50 [4],mortality [1],mortality [2],toxicity in animals (in words) (animals),"percentage of inhibition of TBARS production, Fe-ascorbate [4]","inhibition of lipid peroxidation, Fe-ascorbate (in words) [4]",effect with Fe-ascorbate compared with the tests depending on NADPH [4],"inhibition of lipid peroxidation, NADPH (in words) [3]",metabolite detected (rat liver microsomes),persistence of the inhibiting activity [6],"inhibiting activity compared with another compound, NADPH [3]","inhibiting activity compared with another compound, Fe-ascorbate [4]"
COc1cccc2c1C(=O)c1c(O)c3c(c(O)c1C2=O)C[C@@](O)(C(=O)CO)C[C@@H]3O[C@H]1C[C@H](N)[C@H](O)[C@H](C)O1 [F-DXR],,,,100%,100%,cardiomyopathy,,,,,,,,
COc1cc2c(cc1O)C=CC(C)(C)O2 [compound 2],1.4 µM,85%,3.8 µM,,,,,potent inhibiting effect,six times smaller,,,,,
COc1cc2c(cc1OC)OC(C)(C)CC2 [compound 5],15 µM,86%,,,,,17%,inactive,,,,remains constant; also recorded: anti-oxidant efficiency more metabolic-dependent,,
COc1cc2c(cc1O)CCC(C)(C)O2 [compound 6],0.3 µM,87%,1.9 µM,,,,,potent inhibiting effect; also recorded: the greatest inhibiting power,six times smaller,,,,an order of magnitude greater than that of the compound 7,superior to that of the BHT; also recorded: an order of magnitude greater than that of the compound 7
COc1cc2c(cc1O)OC(C)(C)CC2 [compound 7],3.4 µM,88%,19 µM,,,,,potent inhibiting effect,six times smaller,,,,,
